Read-outs that look alike come from different tables or passages of the source. Each block holds one molecule with its values, some of them ahead of it.
Assays:
[1] = molecular target: T1, human p38 kinase alpha (Homo sapiens, UniProt Q16539); test: p38 kinase in vitro assay, phosphorylation of biotinylated PHAS-I with 32P-ATP; format: biochemical
T1 construct: GST (N, cleaved yes); made in house; host or cells: E. coli DH10B

[2] = tested on: TNF-α, U937 human histiocytic lymphoma cell line; test: LPS stimulation of TNF production by U937 cells; format: cell-based; details: for U937 Cell IC50, uM or % inhib @ conc. (uM): % inhib: @ 10.0 uM; for inhibition at 1 µM: U-937, @ 1.0 uM, read-out: U937 Cell % inhib @ conc.
Method in brief: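 U937 cells differentiated 24 h with 20 ng/ml PMA, rested 24-48 h, used at 2 million cells/ml. Compounds in 0.1% DMSO final; LPS (E. coli, 100 ng/ml final) stimulation for 4 h at 37° C. Released TNF-α measured by ELISA; IC50 (μM).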

[3] = TNF production, U937 cells stimulated with LPS
[4] = in vitro P38-alpha kinase inhibition, read-out: P38 alpha kinase IC50
[5] = TNF production, human U937 cells stimulated with LPS, read-out: U937 Cell IC50
[6] = Homo sapiens, TNF production, U937 cells stimulated with LPS
[7] = Homo sapiens, U-937, TNF production, human U937 cells stimulated with LPS, read-out: U937 Cell IC50
[8] = in vitro P38-alpha kinase, read-out: P38 alpha kinase IC50
[9] = @ 1.0 uM, TNF production, U937 cells stimulated with LPS

T1 sequence (Q16539 whole entry): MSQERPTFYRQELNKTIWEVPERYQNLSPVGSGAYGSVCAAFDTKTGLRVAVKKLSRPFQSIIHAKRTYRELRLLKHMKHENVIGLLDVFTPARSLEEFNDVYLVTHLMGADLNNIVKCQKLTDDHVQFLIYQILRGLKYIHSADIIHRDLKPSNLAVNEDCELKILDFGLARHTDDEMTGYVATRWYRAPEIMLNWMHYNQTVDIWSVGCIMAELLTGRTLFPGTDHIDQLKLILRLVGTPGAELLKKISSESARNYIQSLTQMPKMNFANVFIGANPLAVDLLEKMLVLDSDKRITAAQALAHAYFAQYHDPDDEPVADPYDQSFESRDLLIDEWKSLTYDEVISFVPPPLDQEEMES

P38 alpha kinase IC50, uM or % inhib @ conc. (uM): % inhib ([1]; @ 10.0 uM): 94.0% @ | U937 Cell IC50, uM or % inhib @ conc. (uM): % inhib [2, 3]: 15.0% @
SMILES: Cc1c(-c2ccncc2)c(-c2ccc(F)cc2)nn1CC(=O)Nc1ccc(CCC(=O)c2cccnc2)cc1 [Example B-2445]

IC50 [1, 4]: 1960 nM | IC50 [2, 5]: > 1 µM
SMILES: O=C(NC(Cc1ccccc1)c1[nH]nc(-c2ccc(F)cc2)c1-c1ccncc1)C1CC1 (centres unmarked) [Example B-0837]

P38 alpha kinase IC50, uM or % inhib @ conc. (uM): % inhib ([1]; @ 10.0 uM): 45.0% @ | U937 Cell IC50, uM or % inhib @ conc. (uM): % inhib [2, 3]: 24.0% @
SMILES: COC(=O)C1CN1C(=O)Cn1nc(-c2ccc(F)cc2)c(-c2ccncc2)c1C (centres unmarked) [Example B-2406]

IC50 [1, 4]: 2790 nM
SMILES: COc1ccccc1C(=O)NC(Cc1ccccc1)c1[nH]nc(-c2ccc(F)cc2)c1-c1ccncc1 (centres unmarked) [Example B-0811]
inhibition at 1 µM [2, 6]: 2%

IC50 [1, 4]: 1920 nM | IC50 [2, 7]: > 1 µM
SMILES: CNC(=O)CCC(NC(=O)c1ccccc1F)c1[nH]nc(-c2ccc(F)cc2)c1-c1ccncc1 (centres unmarked) [Example B-0874]

IC50 [1, 8]: < 100 nM | IC50 [2, 7]: > 1 µM
SMILES: NS(=O)(=O)c1ccc(CNC(=O)NCCCc2[nH]nc(-c3ccc(F)cc3)c2-c2ccncc2)cc1 [Example B-1308]

IC50 [1, 4]: 1480 nM
SMILES: CNC(=O)CCC(NC(=O)Nc1c(C)cccc1C)c1[nH]nc(-c2ccc(F)cc2)c1-c1ccncc1 (centres unmarked) [Example B-0882]
inhibition at 1 µM [2, 6]: 9%

P38 alpha kinase % inhib @ conc. (uM) ([1]; @ 10.0 uM): 63.0% @
SMILES: O=C(NCCc1[nH]nc(-c2ccc(F)cc2)c1-c1ccncc1)Nc1ccc(Cc2ccccc2)cc1 [Example B-0943]
U937 Cell % inhib @ conc. (uM) [2, 9]: 24.0% @

IC50 [1, 4]: 2090 nM
SMILES: CC(NC(=O)c1cccc(C#N)c1)c1[nH]nc(-c2ccc(F)cc2)c1-c1ccncc1 (centres unmarked) [Example B-0676]
U937 Cell % inhib @ conc. (uM) ([2]; @ 1.0 uM, TNF production in human U937 cells stimulated with LPS): 22.0% @

IC50 ([1]; activated human p38 kinase alpha, PHAS-I substrate, 50 μM unlabeled ATP, read-out: p38 kinase IC50): 3200 nM | IC50 ([2]; Table 5, LPS-stimulated U937 cells, TNF-α, read-out: U937 Cell Assay IC50): 2.36 µM
SMILES: CCOc1ccc(-c2n[nH]c(C)c2-c2ccncc2)cc1 [Example A-47]

IC50 [1, 4]: 3580 nM
SMILES: O=C(NCCc1[nH]nc(-c2ccc(F)cc2)c1-c1ccncc1)c1ccc(Cl)cc1 [Example B-1121]
inhibition at 1 µM [2, 6]: 29%

P38 alpha kinase % inhib @ conc. (uM) ([1]; @ 1.0 uM): 78.0% @
SMILES: O=C(NCCc1[nH]nc(-c2ccc(F)cc2)c1-c1ccncc1)NCc1ccccc1 [Example B-0939]
U937 Cell % inhib @ conc. (uM) [2, 9]: 14.0% @

IC50 [1, 4]: 3130 nM
SMILES: CNC(=O)CCC(NC(=O)Cc1cccc(OC)c1)c1[nH]nc(-c2ccc(F)cc2)c1-c1ccncc1 (centres unmarked) [Example B-0872]
inhibition at 1 µM [2, 6]: 3%

P38 alpha kinase IC50, uM or % inhib @ conc. (uM): % inhib ([1]; @ 10.0 uM): 94.0% @ | IC50 ([2]; TNF production, U937 cells stimulated with LPS, read-out: U937 Cell IC50, uM or % inhib @ conc. (uM): IC50): > 10 µM
SMILES: CCCCCSc1cccc(NC(=O)Cn2nc(-c3ccc(F)cc3)c(-c3ccncc3)c2C)c1 [Example B-2447]

P38 alpha kinase % inhib @ conc. ([1]; @ 1.0 uM): 44.0% @
SMILES: CCOC(=O)C(CCSC)NC(=O)NCc1[nH]nc(-c2ccc(F)cc2)c1-c1ccncc1 (centres unmarked) [Example B-0147]
U937 Cell % inhib @ conc. [2, 9]: 22.0% @

IC50 [1, 8]: 1240 nM
SMILES: Cc1ccc(S(=O)(=O)N2CCC(c3[nH]nc(-c4ccc(F)cc4)c3-c3ccncc3)CC2)cc1 [Example B-1473]
inhibition at 1 µM ([2]; Homo sapiens, TNF production, LPS-stimulated U937 cells): 14%

IC50 [1, 8]: 55 nM | IC50 [2, 7]: 0.73 µM
SMILES: CCNC(=O)N1CCC(c2[nH]nc(-c3ccc(F)cc3)c2-c2ccncc2)CC1 [Example B-1381]

P38 alpha kinase % inhib @ conc. (uM) ([1]; @ 1.0 uM): 70.0% @ | IC50 [2, 5]: 1.16 µM
SMILES: COc1ccc(CC(=O)NCCCc2[nH]nc(-c3ccc(F)cc3)c2-c2ccncc2)cc1 [Example B-1177]

IC50 [1, 4]: 1640 nM
SMILES: O=C(NC(Cc1ccccc1)c1[nH]nc(-c2ccc(F)cc2)c1-c1ccncc1)C1CCCC1 (centres unmarked) [Example B-0820]
inhibition at 1 µM [2, 6]: 3%

P38 alpha kinase % inhib @ conc. (uM) ([1]; @ 1.0 uM): 67.0% @
SMILES: CC(C)=CC(=O)NCCc1[nH]nc(-c2ccc(F)cc2)c1-c1ccncc1 [Example B-0998]
U937 Cell % inhib @ conc. (uM) [2, 9]: 25.0% @

IC50 [1, 4]: 4190 nM | IC50 [2, 7]: > 1 µM
SMILES: CNC(=O)CCC(NC(=O)c1ccno1)c1[nH]nc(-c2ccc(F)cc2)c1-c1ccncc1 (centres unmarked) [Example B-0869]

P38 alpha kinase % inhib @ conc. ([1]; @ 1.0 uM): 42.0% @ | IC50 [2, 5]: 3.63 µM
SMILES: O=S(=O)(NCc1[nH]nc(-c2ccc(F)cc2)c1-c1ccncc1)c1ccc(OC(F)F)cc1 [Example B-0143]

P38 alpha kinase % inhib @ conc. (uM) ([1]; @ 1.0 uM): 68.0% @
SMILES: O=C(NCCc1[nH]nc(-c2ccc(F)cc2)c1-c1ccncc1)Nc1cccc(Cl)c1Cl [Example B-0980]
U937 Cell % inhib @ conc. (uM) [2, 9]: 31.0% @

P38 alpha kinase % inhib @ conc. (uM) ([1]; @ 1.0 uM): 58.0% @
SMILES: Cc1ccc(S(=O)(=O)NCCc2[nH]nc(-c3ccc(F)cc3)c2-c2ccncc2)cc1 [Example B-1027]
U937 Cell % inhib @ conc. (uM) [2, 9]: 18.0% @

IC50 [1, 4]: 2220 nM
SMILES: COc1ccc(CC(=O)NC(C)c2[nH]nc(-c3ccc(F)cc3)c2-c2ccncc2)cc1 (centres unmarked) [Example B-0549]
inhibition at 1 µM ([2]; Homo sapiens, TNF production in human U937 cells stimulated with LPS): 22%

— patent US6979686B1, “Substituted pyrazoles as p38 kinase inhibitors” (Pharmacia Corporation, priority 2001, dated 2005)
